Holding throughout (assay type): in vivo
In one assay the test system is Ta tumors. The experiment in a line: Recurrence in patients with Ta tumors (Kaplan-Meier). An excerpt: The Kaplan-Meier Curve is a conventional tool used to project treatment outcome such as the % of patients who remain alive or free of disease at a certain time interval. (Martin Bland, Introduction to Medical Statistics (1994) Oxford Press). The Kaplan Meier Curve was used to compare the customary experimental therapy to the high efficacy therapy. When compared to the customary experimental therapy, the high efficacy therapy increased the percentage of all patients who are projected to remain recurrence-freefor longer than 5 years from 20 to 41%. The improvement was similar for patients with T1 tumors which were growing in the deeper bladder tissue layers (i.e. increase from 16% to 44%) and for patients with Ta tumors which were growing in the urothelial surface of the bladder (i.e. increase from 20% to 37%).

The subject of a further assay is Tis tumors. Put plainly: Recurrence in patients with Tis tumors (Example 4). The protocol:
Ten patients from whom one or more foci of Tis had been removed were treated weekly for six weeks with the high efficacy therapy as described above in example 1 and 12 patients from whom one or more foci of Tis had been removed were treated weekly for six with the standard MMC intravesical therapy as described in example 1. […] The projected 5-year recurrence free rate is 43% for the high efficacy treatment and 19% for the standard treatment.

Assay [1] relates to high grade tumors (grade III). Put plainly: Recurrence in patients with high grade tumors (Example 6). Here is the method:
Twenty-seven patients from whom high grade tumors (i.e., grade III)had been removed were treated weekly for six weeks with the high efficacy therapy as described above in example 1 and 23 patients from whom high grade tumors had been removed were treated weekly for six weeks with the customary experimental therapy as described in example 1. All patients were evaluated as described in example 1. The median time to recurrence was not reached for patients treated by the high efficacy treatment versus 179 days for patients treated by the customary experimental treatment. The projected 5-year recurrence free value is 52% for the patients receiving the high efficacy treatment and 19% for the customary experimental treatment.

Assay [2] has as its system Ta, T1 or Tis bladder tumors. The experiment in a line: Clinical trial of adjuvant intravesical MMC after transurethral resection: recurrence in Ta, T1 or Tis bladder tumor patients (Example 1, Table 2, FIG. 1). The conditions noted are these: for median time to recurrence: all patients (Ta, T1, Tis); for percentage of patients projected to be tumor recurrence-free at the end of 5 years: all patients, Kaplan-Meier projection. The protocol: One hundred and eight patients with histologically proven primary or recurrent transitional cell carcinoma of grade I to grade III and of stage Ta, T1 or Tis who had their tumors completely resected received the high efficacy therapy within 4 weeks after surgery.
The high efficacy therapy was administered once weekly for a total of six treatments. The MMC dosing solution was made by adding 40 mg of MMC to a vial containing 20 ml of sterile water.
To reduce urine production in the patients during treatment with the MMC dosing solution, the patients were instructed to refrain from fluids for 8 hours prior to and during treatment with the MMC dosing solution. To maintain the pH levels of the urine produced during treatment with the MMC dosing solution, the patients were given 1.3 grams of sodium bicarbonate the night prior to treatment, upon rising on the morning of treatment and 30 minutes prior to treatment. Then a Foley catheter was placed in the bladder of the patients and the bladder was drained by gravity. This was accomplished by holding the catheter end below the level of the bladder. The post void residual urine volume was determined using a bladder ultrasound machine. Drainage of the bladder was repeated until the residual urine volume was less than 10 ml. Drainage was aided by having the patient sit up or stand up, or reach forward while standing. Thereafter, 40 mg of MMC in 20 ml sterile water was instilled intravesically by gravity into the bladder of the patient and retained there for 2 hours. After the 2 hour therapy, bladder contents were drained from the patients and the volume and pH of the contents measured.
For purposes of comparison, 97 matching control patients from whom primary Ta, T1 or Tis bladder tumors had been completely resected were subjected to the customary experimental MMC intravesical therapy weekly for six weeks. These patients were not instructed to refrain from fluids for 8 hours prior to or during the customary experimental therapy. Prior to instillation of the 1 mg/ml MMC dosing solution, the patients were placed in the supine or dorsal lithotomy position and a Foley catheter inserted transurethrally into the bladder of the patients. The bladders were drained by gravity and the post void urine residual volume was measured. No attempts were made to further reduce the residual urine volume. Thereafter, 20 mg of MMC in 20 ml sterile water was instilled intravesically by gravity into the bladders of the patients and retained for 2 hours. After the 2 hour therapy, bladder contents were drained from the patients and the volume and pH of the contents measured.
Cytoscopy was performed on each surviving patient quarterly at three months for 2 years and then at 3 months or six months for the remaining 3 years to look for evidence of visible tumors. Urine cytology was performed on each surviving patient quarterly at three months for 2 years and then at 3 months or six months for the remaining 3 years to look for cells with aneuploid DNA contents. […] If necessary, i.e., if tumor recurrence was suspected, the follow-up included biopsy of the suspicious area and transurethral resection of the bladder tumor. Patients with proven recurrence were treated according to standards in the clinical community.
At each time period the number of patients who had developed histologically proven recurrent or progressive disease on biopsy or cytology was determined. The percentage of patients who remained tumor free at each time period after receiving the high efficacy therapy or the customary experimental therapy is shown in FIG. 1.
The Kaplan-Meier Curve is a conventional tool used to project treatment outcome such as the % of patients who remain alive or free of disease at a certain time interval. (Martin Bland, Introduction to Medical Statistics (1994) Oxford Press). The Kaplan Meier Curve was used to compare the customary experimental therapy to the high efficacy therapy. […]

Assay [3] relates to large tumors, i.e. tumors >5 cm. The experiment in a line: Recurrence in patients with large tumors. The conditions noted are these: high efficacy therapy; large tumors >5 cm.
Where [4] appears, read: customary experimental treatment.
The mark [5] stands for this setting: customary experimental MMC intravesical therapy.

Each structure is given as a SMILES string. “Also recorded” adds a separate entry of the source.

With `COC12C(COC(N)=O)C3=C(C(=O)C(C)=C(N)C3=O)N1CC1NC12` (stereo not shown) [MMC], the entries for the “percentage of patients projected to remain recurrence-free for longer than 5 years” value in the assay on Ta tumors (customary experimental therapy) and in the assay with Ta tumors (high efficacy therapy) were 20% and 37%, respectively. In addition, the “(median time to recurrence; words missing in text)” value with Tis tumors (setting [4]) came out at 106 days. In addition, the “projected 5-year recurrence free rate” value with Tis tumors (high efficacy treatment) is reported as 43%; in the assay on Tis tumors (standard treatment), 19%. In addition, the “median time to recurrence” value was 179 days in assay [1] (setting [4]), “not reached” in assay [1] (high efficacy treatment), 292 days in assay [2] (setting [5]) and 754 days in assay [2] (high efficacy therapy). Besides, the “projected 5-year recurrence free value” in assay [1] (setting [4]) amounted to 19%; in assay [1] (high efficacy treatment), 52%. The “percentage of patients projected to be tumor recurrence-free at the end of 5 years” value in assay [2] (setting [5]) is listed as 20%; in assay [2] (high efficacy therapy) it was 41%. In addition, the “percentage of patients projected to remain tumor recurrence free for 5 years, vs customary therapy” value in assay [2] (high efficacy therapy, Ta, T1, Tis) was “more effective in enhancing the percentage or fraction of Ta, T1, Tis bladder tumor patients that are projected to remain tumor recurrence free for a period of 5 years”. Moreover, the “rate of recurrence and time interval before tumor recurrence, vs customary therapy” value in assay [2] (high efficacy therapy, Ta, T1 or Tis) is “more effective at reducing the rate of recurrence and increasing the time interval before tumor recurrence is observed; also recorded: tumors recurred at a later time in patients receiving the high efficacy treatment”. Besides, the “delaying and preventing tumor recurrence, vs customary therapy” value in assay [3] is “more effective”.
